Reference: US20130071439A1, “METHODS AND COMPOSITIONS FOR TREATING BIOFILMS” (PRESIDENT AND FELLOWS OF HARVARD COLLEGE, priority 2010, published 2013)

Tests used:
B. subtilis = assay: Effect on cell growth in MSgg medium with shaking; assay type: cell-based, Bacillus subtilis; details: 3 μM
[1] = test system: yqxM operon (strain FC122); assay: Expression of PyqxM-lacZ (β-galactosidase activity); assay type: cell-based, Bacillus subtilis; details: 3 μM
Protocol: (§1) Assays of β-galactosidase activity. Cells were cultured in MSgg medium at 37° C. in a water bath with shaking 1 ml of culture was collected at each time point. β-galactosidase activity was determined as described previously (Chai et al., Mol. Microbiol. 67:254 (2008)).

eps operon (strain FC5) = assay: Expression of PepsA-lacZ (β-galactosidase activity); assay type: cell-based, Bacillus subtilis; details: 3 μM
Protocol: as §1

cell wall = assay: Incorporation of radioactive amino acids into the cell wall; assay type: cell-based, Bacillus subtilis; details: 14C-labelled, 10 μCi/ml, 2 h at 37° C.
Protocol: Incorporation of amino acids into the cell wall. Cells in 50 ml of culture at the mid exponential phase of growth were harvested by centrifugation and washed with 0.05 M of phosphate buffer (pH 7) and re-suspended in 5 ml of the same buffer. […] The radioactivity of whole cells and cell wall fraction was monitored, and, at intervals samples were removed. For measurement of incorporation into whole cells, 0.1 ml samples were collected. For measurements of incorporation into cell wall, 0.5 ml samples were collected. The cells were harvested by centrifugation and re-suspended in SM buffer [0.5 M sucrose, 20 mM MgCl2, and 10 mM potassium phosphate at pH (6.8)] containing 0.1 mg/ml lysozyme. The cells were then incubated at 37° C. for 10 min. Next, the resulting protoplasts were removed by centrifugation at 5000 rpm for 10 min, leaving the cell wall material in the supernatant fluid. […] Finally, 10 ml of 5% trichloroacetic acid was added to the whole cell samples and the cell wall material and maintained on ice for at least 30 min. The TCA-insoluble material was collected on Millipore filters (0.22 μm pore size, Millipore) and washed with 5% TCA. The filters were air-dried and placed in scintillation vials and the TCA-insoluble counts per minute were determined using a scintillation counter.

TasA-mCherry = assay type: cell-based, Bacillus subtilis; details: 6 μM
Protocol: For fluorescence microscopy analysis, 1 ml of culture was harvested. The cells were washed with PBS buffer and suspended in 50 μl of PBS buffer. Cover slides were pretreated with poly L-lysine (Sigma). Samples were examined using an Olympus workstation BX61 microscope. Images were taken using the automated software program SimplePCI and analyzed with program MetaMorph (Universal Imaging Corporation).
The cells were grown to stationary phase with shaking in biofilm-inducing medium in the presence or absence of D-tyrosine (6 μM). […] When the cells were washed by centrifugation, resuspended and then examined by fluorescence microscopy, untreated cells (which were often in clumps) were seen to be intensely decorated with TasA-mCherry. […] The localization of unmodified TasA protein was also analyzed by transmission electron microscopy using gold-labeled anti-TasA antibodies. […] 24-hour-old cultures were incubated without (images 1 and 2) or with (images 3-6) D-tyrosine (0.1 mM) for an additional 12 hours. TasA fibers were stained by immunogold labeling using anti-TasA antibodies, and visualized by transmission electron microscopy as described in the Examples. […] Filled arrows indicate fiber bundles; open arrows indicate individual fibers. The scale bar is 500 nm. The scale bar in the enlargements of images 2, 4 and 6 is 100 nm. […]

TasA fibers = assay: Cell association of TasA fibers by electron microscopy (immunogold); assay type: cell-based, Bacillus subtilis; details: 0.1 mM, 12 hours, Δeps cells
Protocol: Transmission electron microscopy and immunolabeling. Samples were diluted with distilled water and adsorbed onto a carbon or formvar/carbon coated grid. The grid surface was made hydrophilic prior to use with glow discharge in a vacuum evaporator. Once the specimen was adsorbed onto the film surface, the excess sample was blotted off on a filter paper (Whatman #1) and the grid was floated on 5 μl of stain solution (1-2% aqueous uranyl acetate) for a few minutes and then blotted off. The samples were dried and examined in a Tecnai™ G^2 Spirit BioTWIN microscope at an accelerating voltage of 80 KV. Images were taken with an AMT 2k CCD camera. […]
The cells were grown to stationary phase with shaking in biofilm-inducing medium in the presence or absence of D-tyrosine (6 μM). […] When the cells were washed by centrifugation, resuspended and then examined by fluorescence microscopy, untreated cells (which were often in clumps) were seen to be intensely decorated with TasA-mCherry. […] The localization of unmodified TasA protein was also analyzed by transmission electron microscopy using gold-labeled anti-TasA antibodies. […]

S. aureus (strain SCO1) = assay: Biofilm formation on polystyrene, crystal violet staining; assay type: cell-based, Staphylococcus aureus; details: 50 μM, 24 hours at 37° C., TSB
Protocol: (§2) Crystal violet staining was done as described previously (O'Toole et al., Mol. Microbiol. 30:295 (1998)) except that the cells were grown in […]. Wells were stained with 500 μl of 1.0% Crystal-violet dye, rinsed twice with 2 ml double-distilled water and thoroughly dried.
The effect of D-amino acids on biofilm formation by other bacteria was examined. The pathogenic bacterium Staphylococcus aureus forms biofilms on plastic surfaces (Otto, Curr. Top. Microbiol. Immunol. 322:207 (2008)), which can be detected by washing away unbound cells and staining the bound cells with crystal violet. […] Additionally added to the wells were no amino acids (untreated), D-tyrosine (50 μM) or the D-amino acid mixture ([…] each). Cells bound to the polystyrene were visualized by washing away unbound cells and then staining with crystal violet.
For experiments reported in Table 1, the organism/strain was S.a. Harvard SCO1, the culture medium was TSB and the cell inoculation was at 2×10^9 cfu. For experiments reported in Table 2, the organism/strain was […], the culture medium was M63 and the cell inoculation was at 1.5×10^9 cfu. Biofilm was visualized using the crystal violet method. The data is shown below in Tables 1 and 2:
For experiments reported in Tables 3 and 4, the organism/strain was S.a. Harvard SCO1, the culture medium was TSB and the cell inoculation was at 2×10^9 cfu. […]

[2] = test system: Pseudomonas aeruginosa PA14; assay: as above; assay type: cell-based; details: 10 μM, 48 hours at 30° C., M63
Protocol: as §2
P. aeruginosa strain […] was grown in 12-well polystyrene plates for 48 hours at 30° C. in M63 medium containing glycerol (0.2%) and Casamino acids ([…]). Additionally added to the wells were no amino acids (untreated), D-tyrosine or the D-amino acid equimolar mixture. Cells bound to the polystyrene were visualized by washing away unbound cells and then staining with crystal violet. Wells were stained with […] of 1.0% Crystal-violet dye, rinsed twice with 2 ml double-distilled water and thoroughly dried.
For experiments reported in Table 1, the organism/strain was S.a. Harvard SCO1, the culture medium was TSB and the cell inoculation was at 2×10^9 cfu. For experiments reported in Table 2, the organism/strain was […], the culture medium was M63 and the cell inoculation was at 1.5×10^9 cfu. Biofilm was visualized using the crystal violet method.

P.a. Harvard PA14 = assay: Biofilm (colony architecture) formation on M63 defined solid medium; assay type: cell-based, Pseudomonas aeruginosa; details: 500 μM (L-tryptophan: concentration not given)
Text: Similarly to Bacillus subtilis, Pseudomonas aeruginosa forms a complex architecture on defined medium. These complex structures require the proper formation and assembly of the extra-cellular matrix. […] For these experiments, the organism/strain was P.a. Harvard PA14, the culture medium was M63 and the cell inoculation was at 1.5×10^9 cfu.

For `N[C@H](Cc1ccc(O)cc1)C(=O)O` [D-Tyr, D-tyrosine], the cell growth (B. subtilis) was “substantially the same as the untreated sample”, the yqxM expression [1] was “substantially the same as the untreated sample” and the eps expression (eps operon (strain FC5)) was “substantially the same as the untreated sample”. For the same compound, the “incorporation into the cell wall” value (cell wall) was “incorporated into the cell wall”, the “cell association of TasA-mCherry (fluorescence microscopy of washed cells)” value (TasA-mCherry) was “only low levels of fluorescence” and the “total accumulation of TasA-mCherry (total fluorescence)” value (TasA-mCherry; grown to stationary phase) was “little or no effect”. The “cell association of TasA fibers” value (TasA fibers) was “largely undecorated with TasA fibers”, the “effect on biofilm formation” value (S. aureus (strain SCO1)) was “highly effective in preventing biofilm formation” and the “effect on biofilm formation” value [2] was “effective in preventing biofilm formation”. For the same compound, the “effect on biofilm formation on defined medium” value (P.a. Harvard PA14) was “inhibited biofilm formation on defined medium”.
